Experimental data: article PMC9573605, “Exploring Nitric Oxide (NO)-Releasing Celecoxib Derivatives as Modulators of Radioresponse in Pheochromocytoma Cells” (Molecules, 2022)

What was measured:
[1] = target: T1, recombinant human COX-2 (Homo sapiens, UniProt P35354); experiment: COX Fluorescent Inhibitor Screening Assay, COX-2; type: biochemical; conditions: for SI: COX-1 vs COX-2 selectivity index; for IC50: human COX-2
T1 construct: purchased Cayman Chemical 700100
T1 sequence (P35354 18-604): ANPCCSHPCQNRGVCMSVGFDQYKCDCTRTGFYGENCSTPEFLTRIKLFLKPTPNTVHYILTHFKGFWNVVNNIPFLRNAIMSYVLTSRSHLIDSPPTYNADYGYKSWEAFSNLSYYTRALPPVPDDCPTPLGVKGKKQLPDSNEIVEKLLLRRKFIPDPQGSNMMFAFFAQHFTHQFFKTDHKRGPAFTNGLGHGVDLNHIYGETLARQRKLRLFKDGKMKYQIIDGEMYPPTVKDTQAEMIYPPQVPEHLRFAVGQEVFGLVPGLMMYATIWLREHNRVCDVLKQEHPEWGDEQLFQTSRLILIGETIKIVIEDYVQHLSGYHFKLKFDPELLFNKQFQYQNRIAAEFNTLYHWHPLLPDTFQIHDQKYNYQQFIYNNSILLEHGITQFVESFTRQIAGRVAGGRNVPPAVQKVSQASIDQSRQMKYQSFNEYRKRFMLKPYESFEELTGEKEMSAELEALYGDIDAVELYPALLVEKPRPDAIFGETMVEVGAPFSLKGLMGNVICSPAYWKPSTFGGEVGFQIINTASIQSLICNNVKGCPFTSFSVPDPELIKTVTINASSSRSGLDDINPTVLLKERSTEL
Method: COX inhibition (Table 1) was evaluated in vitro using purified ovine COX-1 and recombinant human COX-2 enzyme in a commercially available “COX Fluorescent Inhibitor Screening Assay KIT” (item no. 700100, Cayman Chemical, Ann Arbor, MI, USA). Celecoxib served as a reference and inhibition data concerning 4a, 4e, 5a and 5e were previously reported by us and is herein discussed for comparison.
COX inhibition activity against ovine COX-1 and human COX-2 was determined using the fluorescence-based COX assay “COX Fluorescent Inhibitor Screening Assay Kit” (catalog number 700100; Cayman Chemical, Ann Arbor, MI, USA) according to the manufacturer’s instructions. Compounds 6a–d were screened at a concentration of 100 µM, all others were assayed in a concentration range of 0.1 nM to 100 μM in duplicate.

[2] = Lipophilicity logD7.4 by HPLC method; type: physicochemical; conditions: HPLC retention on ODP-50 4B column (Shodex Asahipak), phosphate buffer pH 7.4
Method: The lipophilicity of all synthesized compounds was determined as logD7.4, HPLC value by an HPLC method originally described by Donovan and Pescatore.
The logD7.4HPLC value was determined as previously reported by us utilizing an HPLC method originally described by Donovan and Pescatore.

[3] = tested on: MPC-HIF2a spheroids; experiment: Growth of non-irradiated tumor spheroids; type: cell-based, mouse; conditions: 10 µM compound, linear regression between 0 and 9 days
Method: (§1) As a first pilot study, growth responses of MPC-HIF2α spheroids were investigated after two different radiation treatments such as single-dose external beam irradiation (X-ray) and incubation with [^177Lu]LuCl3, respectively. NO-COXIBs were tested at 10 µM for additional effects on radiation treatments against a vehicle-treated control (w/o) and celecoxib (Ce).
4. Growth-rate of tumor spheroids in the presence of NO -COXIBS without radiation treatment
Compound Diameter growth rate
Table S2. Effects of NO-COXIBs on spheroid growth; diameter growth rates of non-irradiated MPC-HIF2a spheroids in presence of 10 µM of compounds determined from linear regression between 0 and 9 days after treatment start; (w/o) vehicle control treated with DMSO

[4] = tested on: MPC-HIF2α tumor spheroids; experiment: Spheroid regrowth assay with external X-ray irradiation; type: cell-based, mouse; conditions: X-ray 15 Gy; 10 µM compound added 2 h post irradiation; controls 83%
Method: as §1
The log2-fold change in spheroid diameter is given as a standardized parameter for spheroid growth, which is positive for growing, near zero for stagnating and negative for shrinking spheroids. Furthermore, regrowth probabilities are given as a parameter to compare how many of the overall studied spheroids in one group recovered within 14 days. Radioprotective effects occurred when compounds were added 2 h before irradiation. In this setup, all compounds accelerated the increase in spheroid size during the regrowth phase compared to controls (Figure 5A, upper panel). Regrowth probabilities of 67–100% under NO-COXIB treatment remained however similar to controls (83%). Radiosensitizing effects occurred when compounds were added 2 h post irradiation. In this setup, all compounds decelerated the increase in spheroid size during the regrowth phase compared to controls.
Genetically modified mouse pheochromocytoma (MPC) cells expressing a codon-optimized Epas1 gene (encoding HIF2α) were cultured as three-dimensional tumor spheroids as published elsewhere. External X-ray beam radiation treatment and [^177Lu]LuCl3 radionuclide treatment was performed as reported previously with some modifications. In brief, spheroids were irradiated with a 200 kV photon beam using a Maxishot X-ray system equipped with a Y.TU/320-D03 tube (YXLON, Hamburg, Germany), growth of spheroids (n = 6) with diameters between 300−400 µm was measured in response to one fixed radiation dose, 15 Gy for X-ray treatment, and 0.25 MBq/mL of [^177Lu]LuCl3 for radionuclide treatment corresponding to a cumulative dose of approximately 2 Gy delivered for 6 days. The applied radiation doses were selected based on the half-maximal spheroid control doses (SCD50) as previously determined for MPC HIF2α spheroids by us. Spheroids were considered as regrown at 100 µm increase in diameter compared to treatment start or at a diameter growth rate of 15 µm per day. Results are reported as spheroid regrowth probability (%).
Figure 5 Effects of NO-COXIBs on radiation treatments of MPC-HIF2α tumor spheroids. (A) Growth responses to X-ray treatment with a radiation dose of 15 Gy in combination with 10 µM NO-COXIBs added to the medium at indicated time points before or after irradiation. (B) Growth responses to [^177Lu]LuCl3 treatment with an initial activity concentration of 0.25 MBq/mL in combination with NO-COXIBs; log2 fold changes in diameter indicate the number of diameter doublings compared to treatment start; 14-day regrowth probability indicates the fraction of spheroids able to regrow within 14 days after treatment start; (black arrows) time point or duration of radiation treatment; (w/o) vehicle controls are shown as black lines; (Ce) celecoxib.

[5] = screened at a concentration of 100 µM

Row | Compound | SI [1] | IC50 ([1]; 0.1 nM to 100 µM in duplicate) [nM] | chromatographic logD [2] | IC50 [1, 5] [nM] | Diameter growth rate ± SEM [3] [µm/day] | 14-day regrowth probability [4]
1 | Cc1ccc(-c2c(Cl)c(CO[N+](=O)[O-])nn2-c2ccc(S(C)(=O)=O)cc2)cc1 [5c, {4-Chloro-1-[4-(methylsulfonyl)phenyl]-5-(p-tolyl)-1H-pyrazol-3-yl}methyl nitrate] | >47 | 2120 | 4.04 | – | 60.4 ± 5.3 | 17%
2 | COc1ccc(-c2c(Cl)c(CO[N+](=O)[O-])nn2-c2ccc(S(C)(=O)=O)cc2)cc1 [5d, {4-Chloro-5-(4-methoxyphenyl)-1-[4-(methylsulfonyl)phenyl]-1H-pyrazol-3-yl}methyl nitrate] | >92 | 1080 | 4.02 | – | 61.2 ± 5.5 | 17%
3 | COc1ccc(-c2cc(CO[N+](=O)[O-])nn2-c2ccc(S(N)(=O)=O)cc2)cc1 [5f, [5-(4-Methoxyphenyl)-1-(4-sulfamoylphenyl)-1H-pyrazol-3-yl]methyl nitrate] | >84 | 1180 | 3.32 | – | 61.4 ± 5.2 | 17%

Continued, in another order:

Row | SI [1] | IC50 ([1]; 0.1 nM to 100 µM in duplicate) [nM] | chromatographic logD [2] | IC50 [1, 5] [nM] | Compound | Diameter growth rate ± SEM [3] [µm/day] | 14-day regrowth probability [4]
4 | – | – | 2.27 | > 100000 | CCC(=O)NS(=O)(=O)c1ccc(-n2nc(CO[N+](=O)[O-])c(Cl)c2-c2ccc(C)cc2)cc1 [6a, {4-Chloro-1-[4-(N-propionylsulfamoyl)phenyl]-5-(p-tolyl)-1H-pyrazol-3-yl}methyl nitrate] | 64.1 ± 6.1 | 33–40%
5 | – | – | 2.1 | > 100000 | CCC(=O)NS(=O)(=O)c1ccc(-n2nc(CO[N+](=O)[O-])c(Cl)c2-c2ccc(OC)cc2)cc1 [6b, {4-Chloro-5-(4-methoxyphenyl)-1-[4-(N-propionylsulfamoyl)phenyl]-1H-pyrazol-3-yl}methyl nitrate] | 63.1 ± 5.3 | 0%
6 | – | – | 1.82 | > 100000 | CCC(=O)NS(=O)(=O)c1ccc(-n2nc(CO[N+](=O)[O-])cc2-c2ccc(C)cc2)cc1 [6c, {1-[4-(N-Propionylsulfamoyl)phenyl]-5-(p-tolyl)-1H-pyrazol-3-yl}methyl nitrate] | 60.0 ± 5.5 | 33–40%
7 | – | – | 1.55 | > 100000 | CCC(=O)NS(=O)(=O)c1ccc(-n2nc(CO[N+](=O)[O-])cc2-c2ccc(OC)cc2)cc1 [6d, {5-(4-Methoxyphenyl)-1-[4-(N-propionylsulfamoyl)phenyl]-1H-pyrazol-3-yl}methyl nitrate] | 63.7 ± 5.9 | 33–40%
